Structures are written as SMILES.

Our source for the IC50 values is patent publication US20160376240A1, “6 Phenyl or 6 Pyridin 3 YL Indazole Derivatives and Methods of Use” (ABBVIE INC., priority 2014, published 2016).

Holding throughout (assay type): biochemical
The target of one test is T1, TrkA (Homo sapiens, UniProt P04629).
T1 construct: purchased Invitrogen PV3144
Briefly: TrkA kinase inhibition, HTRF assay. The settings on record: LCK peptide substrate 125 nM, TrkA 2-10 nM pre-incubated with ATP 200 μM. In short, it runs like this: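 TrkA (2-10 nM) preactivated 20 min with 200 μM ATP in HEPES pH 7.4 with Mg2+/Mn2+, then compound for 10 min, then 125 nM biotinylated LCK-peptide for 1 h at ambient temperature. HTRF 665/620 ratio read; IC50 fitted from initial-rate percent inhibition.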
(In general: Time-resolved FRET reads energy transfer from a long-lived donor to a nearby acceptor.)

For a further test, the target named is T2, TrkB (Homo sapiens, UniProt Q16620).
T2 construct: purchased Invitrogen PV3616
T2 sequence (Q16620 32-822): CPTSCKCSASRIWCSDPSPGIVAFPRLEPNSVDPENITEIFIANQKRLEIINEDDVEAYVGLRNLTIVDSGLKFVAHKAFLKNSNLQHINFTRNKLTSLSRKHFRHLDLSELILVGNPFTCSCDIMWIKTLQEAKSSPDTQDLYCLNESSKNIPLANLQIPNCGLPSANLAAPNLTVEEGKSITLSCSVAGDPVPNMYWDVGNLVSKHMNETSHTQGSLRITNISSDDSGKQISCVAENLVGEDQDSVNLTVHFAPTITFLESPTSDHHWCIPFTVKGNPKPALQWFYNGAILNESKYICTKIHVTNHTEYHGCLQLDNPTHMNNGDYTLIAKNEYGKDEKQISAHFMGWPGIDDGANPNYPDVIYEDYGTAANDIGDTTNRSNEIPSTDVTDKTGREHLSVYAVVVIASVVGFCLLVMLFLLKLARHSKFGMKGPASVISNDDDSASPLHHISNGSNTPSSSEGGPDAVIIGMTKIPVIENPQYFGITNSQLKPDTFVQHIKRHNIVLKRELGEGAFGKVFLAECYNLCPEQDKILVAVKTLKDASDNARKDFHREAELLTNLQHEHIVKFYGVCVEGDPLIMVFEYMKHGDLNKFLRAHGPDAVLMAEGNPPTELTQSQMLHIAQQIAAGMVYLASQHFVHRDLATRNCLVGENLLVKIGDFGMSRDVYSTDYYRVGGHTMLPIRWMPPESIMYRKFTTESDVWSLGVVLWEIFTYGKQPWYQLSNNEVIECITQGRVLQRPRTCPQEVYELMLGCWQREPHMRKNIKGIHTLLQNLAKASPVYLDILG
Briefly: TrkB kinase inhibition, HTRF assay. The settings on record: LCK peptide substrate, assay ATP concentration targeted 5 μM. As for the experimental part:
(§1) TrkA, TrkB, and TrkC enzymes were obtained from Invitrogen (as catalog numbers PV3144, PV3616, and PV3617, respectively). The ability of a compound to inhibit the enzymatic activity of the TrkA, TrkB, and TrkC enzymes was determined in separate assays. Enzyme activity was measured in an HTRF® (homogeneous time resolved fluorescence) assay, which detects enzymatic phosphorylation of a biotinylated synthetic peptide substrate (an LCK peptide analog, biotin-ahx-GAEEEIYAAFFA, from Genemed Synthesis). Phosphorylation is assessed by HTRF® in the presence of an anti-phosphotyrosine antibody conjugated to Eu^3+ cryptate (Cisbio) as donor fluorophore, and streptavidin conjugated to allophycocyanin (ProZyme) as acceptor fluorophore. The HTRF® signal was detected at two different wavelengths (620 nm and 665 nm) which were used to calculate the fluorescence ratio.
(§2) Each enzyme was titrated to a concentration optimized to ensure accurate measurement of the initial reaction rate. To allow the Trk enzymes to undergo activation and auto-phosphorylation, a 20 minute pre-incubation with ATP was carried out (at twice the final targeted enzyme and ATP concentration) prior to addition of test compound and the peptide substrate.
(§3) TrkA in vitro assays were performed by pre-incubating TrkA (2-10 nM) with ATP (200 μM) for 20 minutes at ambient temperature in 50 mM HEPES pH 7.4, 10 mM MgCl2, 2 mM MnCl2, 100 μM Na3VO4, 1 mM dithiothreitol, 0.01% BSA (bovine serum albumin). Then, to the activated Trk enzyme mixture was added the test compound in 2% dimethyl sulfoxide. After 10 minutes, the peptide substrate (125 nM) was added. After 1 hour, enzyme reactions were terminated by addition of equal reaction volumes of detection/stop reagent (containing 0.2 μg/mL anti-phosphotyrosine monoclonal antibody labeled with europium from Cisbio (catalog# PT66-K), and 4 μg/mL PhycoLink® Streptavidin-Allophycocyanin conjugate from ProZyme (catalog# PJ25S) in 60 mM EDTA in 40 mM HEPES pH 7.4, 480 mM KF, 0.01% Tween® 20 and 0.1% BSA bovine serum albumin) Reaction plates were stored at 4° C. overnight before reading the fluorescence ratio signal on a PerkinElmer EnVision™ fluorescence detector. Individual reaction wells were stopped at time points to obtain reaction rates. The test inhibitor compounds were assayed in duplicate, at half-log serial dilutions over a range of concentrations (e.g. starting at 50 μM or 5 μM as the high compound concentration). The percent Trk enzyme inhibition was calculated from the initial rates of the inhibited reactions relative to the uninhibited control. IC50 values were calculated by fitting the inhibition percent to the concentration of inhibitor [I] in the assay in equation 1 below, to solve for the IC50.
(§4) Inhibition %=100[I]/([I]+[IC50]) equation 1
(§5) The TrkB and TrkC in vitro assays were performed as described above, except that for these enzymes the assay ATP concentration targeted was 5 μM.

A further test has as its target T3, TrkC (Homo sapiens, UniProt Q16288).
T3 construct: purchased Invitrogen PV3617
Briefly: TrkC kinase inhibition, HTRF assay. The settings on record: LCK peptide substrate, assay ATP concentration targeted 5 μM. As for the experimental part: as §1, §2, §3, §4, §5

T3 sequence (Q16288 32-839): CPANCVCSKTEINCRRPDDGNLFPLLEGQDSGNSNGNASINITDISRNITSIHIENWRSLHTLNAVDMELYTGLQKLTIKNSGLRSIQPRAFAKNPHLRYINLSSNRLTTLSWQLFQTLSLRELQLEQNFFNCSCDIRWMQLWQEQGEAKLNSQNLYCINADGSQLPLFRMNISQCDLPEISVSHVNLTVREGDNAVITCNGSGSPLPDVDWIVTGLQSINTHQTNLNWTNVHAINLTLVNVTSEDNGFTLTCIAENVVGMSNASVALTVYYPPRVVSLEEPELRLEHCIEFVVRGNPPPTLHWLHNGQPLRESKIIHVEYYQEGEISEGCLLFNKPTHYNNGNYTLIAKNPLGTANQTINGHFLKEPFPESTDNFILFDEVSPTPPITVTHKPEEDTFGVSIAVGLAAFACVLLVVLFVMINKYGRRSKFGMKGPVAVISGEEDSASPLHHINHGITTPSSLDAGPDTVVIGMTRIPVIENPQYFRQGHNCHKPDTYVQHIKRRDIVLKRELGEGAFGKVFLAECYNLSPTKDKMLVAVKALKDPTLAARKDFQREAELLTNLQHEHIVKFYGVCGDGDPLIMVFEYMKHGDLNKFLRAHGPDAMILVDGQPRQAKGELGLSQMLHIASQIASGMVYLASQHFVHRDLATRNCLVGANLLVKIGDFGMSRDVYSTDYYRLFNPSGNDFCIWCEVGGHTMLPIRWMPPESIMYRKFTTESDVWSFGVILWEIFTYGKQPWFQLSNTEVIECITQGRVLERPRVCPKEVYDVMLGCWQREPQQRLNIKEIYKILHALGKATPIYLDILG
T1 sequence (P04629 33-796): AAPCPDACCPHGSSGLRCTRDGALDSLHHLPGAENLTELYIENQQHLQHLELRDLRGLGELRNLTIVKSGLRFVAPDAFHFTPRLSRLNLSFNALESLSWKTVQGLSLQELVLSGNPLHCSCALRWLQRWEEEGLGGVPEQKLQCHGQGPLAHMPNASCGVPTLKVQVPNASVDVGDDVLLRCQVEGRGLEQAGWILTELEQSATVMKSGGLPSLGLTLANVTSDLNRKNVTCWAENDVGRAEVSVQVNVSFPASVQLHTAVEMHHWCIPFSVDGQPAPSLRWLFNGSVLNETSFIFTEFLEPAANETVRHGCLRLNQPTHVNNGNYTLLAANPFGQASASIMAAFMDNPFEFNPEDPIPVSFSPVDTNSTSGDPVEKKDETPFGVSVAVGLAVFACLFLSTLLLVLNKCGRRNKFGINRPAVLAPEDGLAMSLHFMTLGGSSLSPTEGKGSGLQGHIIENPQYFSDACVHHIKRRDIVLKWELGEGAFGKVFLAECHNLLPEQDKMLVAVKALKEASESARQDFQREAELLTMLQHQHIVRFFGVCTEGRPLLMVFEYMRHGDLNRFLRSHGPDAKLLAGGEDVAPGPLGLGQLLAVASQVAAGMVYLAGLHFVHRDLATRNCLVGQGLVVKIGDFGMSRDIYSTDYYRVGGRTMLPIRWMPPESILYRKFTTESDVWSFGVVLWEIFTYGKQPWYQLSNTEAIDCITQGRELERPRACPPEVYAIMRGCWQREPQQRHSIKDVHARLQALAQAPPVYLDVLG

As for `NC(=O)c1ccc(-c2cc(OC3CCOCC3)c3c(N)n[nH]c3c2)cc1N1CCN(c2ccccc2)CC1` [Example 1, 4-[3-amino-4-(tetrahydro-2H-pyran-4-yloxy)-1H-indazol-6-yl]-2-(4-phenylpiperazin-1-yl)benzamide], the IC50 (as a rule, the midpoint of a concentration-inhibition curve) against TrkA stood at 2.66 nM; on TrkB it was 0.786 nM; against TrkC, 1.03 nM.
On the same counts, the results for `NC(=O)c1ccc(-c2cc(OC3CCOCC3)c3c(N)n[nH]c3c2)cc1N1CCN(c2cccnc2)CC1` [Example 2, 4-[3-amino-4-(tetrahydro-2H-pyran-4-yloxy)-1H-indazol-6-yl]-2-[4-(pyridin-3-yl)piperazin-1-yl]benzamide] are 7.4 nM, 3.09 nM and 3.85 nM.
For `NC(=O)c1ccc(-c2cc(OC3CCOCC3)c3c(N)n[nH]c3c2)cc1N1CCN(C2CC2)CC1` [Example 3, 4-[3-amino-4-(tetrahydro-2H-pyran-4-yloxy)-1H-indazol-6-yl]-2-(4-cyclopropylpiperazin-1-yl)benzamide], the concentration for half-maximal inhibition (IC50) was determined as 55.3 nM against TrkA, 20.6 nM against TrkB and 25.7 nM against TrkC.
On the same counts, the results for `COc1cncnc1N1CCN(c2cc(-c3cc(OC4CCOCC4)c4c(N)n[nH]c4c3)ccc2C(N)=O)CC1` [Example 6, 4-[3-amino-4-(tetrahydro-2H-pyran-4-yloxy)-1H-indazol-6-yl]-2-[4-(5-methoxypyrimidin-4-yl)piperazin-1-yl]benzamide] are 42.1 nM, 15 nM and 23.7 nM.
On the same counts, the results for `Nc1n[nH]c2cc(-c3ccc(C(=O)NC4CC4)c(N4CCN(c5ccccc5)CC4)c3)cc(OC3CCOCC3)c12` [Example 23, 4-[3-amino-4-(tetrahydro-2H-pyran-4-yloxy)-1H-indazol-6-yl]-N-cyclopropyl-2-(4-phenylpiperazin-1-yl)benzamide] are 15 nM, 8.04 nM and 8.53 nM.
As to `CNC(=O)c1ccc(-c2cc(OC3CCOCC3)c3c(N)n[nH]c3c2)cc1N1CCN(c2ccccc2)CC1` [Example 30, 4-[3-amino-4-(tetrahydro-2H-pyran-4-yloxy)-1H-indazol-6-yl]-N-methyl-2-(4-phenylpiperazin-1-yl)benzamide], the IC50 was found to be 10.4 nM against TrkA, 1.5 nM against TrkB and 1.5 nM at TrkC.
On to `CNC(=O)c1ccc(-c2cc(OC(C)C(F)(F)F)c3c(N)n[nH]c3c2)cc1N1CCN(C2CC2)CC1` (centres unmarked) [Example 34, 4-{3-amino-4-[(1,1,1-trifluoropropan-2-yl)oxy]-1H-indazol-6-yl}-2-(4-cyclopropylpiperazin-1-yl)-N-methylbenzamide], for which the IC50 stood at 318 nM against TrkA, 330 nM on TrkB and 318 nM against TrkC.
`CNC(=O)c1ccc(-c2cc(OC(C)C(F)(F)F)c3c(N)n[nH]c3c2)cc1N1CCN(C2CCCCC2)CC1` (centres unmarked) [Example 35, 4-{3-amino-4-[(1,1,1-trifluoropropan-2-yl)oxy]-1H-indazol-6-yl}-2-(4-cyclohexylpiperazin-1-yl)-N-methylbenzamide]: the 50% inhibitory concentration (IC50) at TrkA came to 59.5 nM; against TrkB, 91.9 nM; at TrkC, 105 nM.
On the same counts, the results for `CNC(=O)c1ccc(-c2cc(O[C@@H](C)C(F)(F)F)c3c(N)n[nH]c3c2)cc1N1CCN(C2CCCCC2)CC1` [Example 47, 4-(3-amino-4-{[(2S)-1,1,1-trifluoropropan-2-yl]oxy}-1H-indazol-6-yl)-2-(4-cyclohexylpiperazin-1-yl)-N-methylbenzamide] are 232 nM, 268 nM and 300 nM.
Take `CNC(=O)c1ccc(-c2cc(OC3CCOCC3)c3c(C)n[nH]c3c2)cc1N1CCN(C(=O)OC(C)C(F)(F)F)CC1` (centres unmarked) [Example 163, 1,1,1-trifluoropropan-2-yl 4-{2-(methylcarbamoyl)-5-[3-methyl-4-(tetrahydro-2H-pyran-4-yloxy)-1H-indazol-6-yl]phenyl}piperazine-1-carboxylate]: on TrkA, the half-inhibitory concentration (IC50) worked out at 171 nM.
On to `CNC(=O)c1ccc(-c2cc(OC3CCOCC3)c3c(C)n[nH]c3c2)cc1N1CCN(C(=O)CC2CC2)CC1` [Example 164, 2-[4-(cyclopropylacetyl)piperazin-1-yl]-N-methyl-4-[3-methyl-4-(tetrahydro-2H-pyran-4-yloxy)-1H-indazol-6-yl]benzamide], for which the half-inhibitory concentration (IC50) at TrkA turned out to be 8.62 nM.
For `CNC(=O)c1ccc(-c2cc(OC3CCOCC3)c3c(C)n[nH]c3c2)cc1N1CCN(c2ncc(F)cn2)CC1` [Example 165, 2-[4-(5-fluoropyrimidin-2-yl)piperazin-1-yl]-N-methyl-4-[3-methyl-4-(tetrahydro-2H-pyran-4-yloxy)-1H-indazol-6-yl]benzamide], the 50% inhibitory concentration (IC50) against TrkA worked out at 1040 nM. This IC50 lies about 120-fold higher than the previous one.
On to `Cc1n[nH]c2cc(-c3ccc(C(N)=O)c(N4CC5(CN(CC(F)(F)F)C5)C4)c3)cc(OC3CCOCC3)c12` [Example 166, 4-[3-methyl-4-(tetrahydro-2H-pyran-4-yloxy)-1H-indazol-6-yl]-2-[6-(2,2,2-trifluoroethyl)-2,6-diazaspiro[3.3]hept-2-yl]benzamide], for which the IC50 against TrkA turned out to be 1040 nM. That is a single-digit micromolar value.
The same measure, in the same setting: to `CNC(=O)c1ccc(-c2cc(OC3CCOCC3)c3c(N)n[nH]c3c2)cc1N1CCN(CC(F)(F)C(F)F)CC1` [Example 167, 4-[3-amino-4-(tetrahydro-2H-pyran-4-yloxy)-1H-indazol-6-yl]-N-methyl-2-[4-(2,2,3,3-tetrafluoropropyl)piperazin-1-yl]benzamide] belongs 11.5 nM; to `CNC(=O)c1ccc(-c2cc(OC3CCOCC3)c3c(N)n[nH]c3c2)cc1N1CCN(CCC(F)(F)F)CC1` [Example 168, 4-[3-amino-4-(tetrahydro-2H-pyran-4-yloxy)-1H-indazol-6-yl]-N-methyl-2-[4-(3,3,3-trifluoropropyl)piperazin-1-yl]benzamide], 11.6 nM.
Same read-out and setting: with `CNC(=O)c1ccc(-c2cc(OC3CCOCC3)c3c(N)n[nH]c3c2)cc1N1CCN(CC(F)F)CC1` [Example 169, 4-[3-amino-4-(tetrahydro-2H-pyran-4-yloxy)-1H-indazol-6-yl]-2-[4-(2,2-difluoroethyl)piperazin-1-yl]-N-methylbenzamide] the figure was 38 nM; with `CNC(=O)c1ccc(-c2cc(OC3CCOCC3)c3c(N)n[nH]c3c2)cc1N1CCN(CC(F)(F)C(F)(F)F)CC1` [Example 170, 4-[3-amino-4-(tetrahydro-2H-pyran-4-yloxy)-1H-indazol-6-yl]-N-methyl-2-[4-(2,2,3,3,3-pentafluoropropyl)piperazin-1-yl]benzamide], 17.8 nM; with `CNC(=O)c1ccc(-c2cc(OC3CCOCC3)c3c(N)n[nH]c3c2)cc1N1CCN(CC2CC(F)(F)C2)CC1` [Example 171, 4-[3-amino-4-(tetrahydro-2H-pyran-4-yloxy)-1H-indazol-6-yl]-2-{4-[(3,3-difluorocyclobutyl)methyl]piperazin-1-yl}-N-methylbenzamide], 5.5 nM.
The same measure, in the same setting: with `CNC(=O)c1ccc(-c2cc(OC3CCOCC3)c3c(N)n[nH]c3c2)cc1N1CCN(CC(C)(F)F)CC1` [Example 172, 4-[3-amino-4-(tetrahydro-2H-pyran-4-yloxy)-1H-indazol-6-yl]-2-[4-(2,2-difluoropropyl)piperazin-1-yl]-N-methylbenzamide] the figure was 22 nM; with `CNC(=O)c1ccc(-c2cc(OC3CCOCC3)c3c(N)n[nH]c3c2)cc1N1CCN(CC2CC2(F)F)CC1` (centres unmarked) [Example 173, 4-[3-amino-4-(tetrahydro-2H-pyran-4-yloxy)-1H-indazol-6-yl]-2-{4-[(2,2-difluorocyclopropyl)methyl]piperazin-1-yl}-N-methylbenzamide], 16.4 nM.
